Source: patent US20250283050A1, “METHOD OF CANCER TREATMENT” (priority 2021, published 2025)

How the values were obtained:
esophageal cancer = experiment: en bloc tumor culture with chemotherapeutic agent and Hom-1-TAMs: esophageal cancer; type: cell-based; conditions: agent plus Hom-1-TAMs
Procedure: (§1) Besides CRC, Hom-1-TAMs reverse immune polarity of PDAC and NSCLC TME (data not shown). The effects of Hom-1-TAM on tumoricidal effects of DOX were further explored on other tumor types, such as PDAC, NSLC, esophageal cancer and stomach cancers.
(§2) Additional chemo-reagents used in this study are listed below.
(§3) Tumor tissue were washed with 1×PBS buffer plus antibiotics and then cut into 0.5 cm pieces. Tissues were cultured in 2 mL of RPMI 1640 medium, supplemented with 2-10% FBS (Sigma) and 1% antibiotic-antimycotic solution (Gibco) in 24-well plate (Corning). The cultures were incubated at a 37° C., 5% CO2 incubator. […] To evaluate the effect of chemotherapeutic agents, chemo-reagents at indicated concentration or PBS was used instead of the anti-PD-1 antibody. For en bloc tissue and macrophage co-culture assay, 0.25×10^6 GFP-Hom-1 or control GFP transfected autologous macrophages of the same patient were added to the en bloc tissue culture wells. After gently shaking, the plate was incubated at 37° C., 5% CO2 for 3-5 days. The en bloc tissues were then subjected to single 1 cell isolation and analysis as described.

[1] = test system: colorectal cancers (CRC) tumor cells; experiment: en bloc CRC culture: tumor cell death by PI-staining and FACS; type: cell-based, human
Procedure: (§4) To this end, en bloc colorectal cancers (CRC) or control non-tumor colon mucosal tissues from the same patients were incubated in RPMI based media and treated with DOX for 3 days. The effects of the treatment on tumor or normal cells were then determined by PI-staining and FACS analysis.
(§5) To this end, en bloc CRC tumor or control colon mucosal tissues were treated with DOX at low non-cytotoxic dosage and then co-cultured with TAMs transfected with Hom-1 or control GFP. After 5 days of co-culturing, the effects of the treatment on the survival of tumor or control normal epithelial cells were determined by PI staining and FACS analysis.
as §3
Single cell suspensions generated from en bloc tissue culture were washed with FACS staining solution (PBS plus 2% FBS), fixed and permeabilized (Invitrogen) and then stained with Ber-EP4 antibodies for normal epithelial cells and CK7, CK19 and CK20 for cancer cells for 30 minutes on ice. After washes with FACS staining solution, cells were stained with FITC-conjugated secondary antibodies for 30 minutes on ice. The cells were then washed with FACS staining solution and fixed in 2% paraformaldehyde in PBS for 30 min or overnight. The cells were washed and resuspended in 200 μL of FACS staining solution and 5 μL of PI staining solution (eBioscience/Fisher Scientific) were added in the solution for 15 minutes. Cell viability were then analyzed with a flow cytometry.

NFκB = experiment: NF-κB activation assay in monocytes; type: cell-based; conditions: primary human monocytes; 24 hour
Procedure: To determine whether NFκB plays a role in DOX activation of Hom-1 expression in monocytes, the effects of DOX on NFκB expression in primary monocytes were determined.
Human monocytes were treated with DOX at indicated concentration or PBS control. After 24 hour of treatment, the nuclear extracts were prepared using a nuclear extract kit (Active Motif, Cat. 40010). The DNA-binding activity of NF-κB p65 was determined using the TransAm assays (Active Motif, Cat. 40097) according to the manufacturer's instructions. Briefly, 2.5 μg nuclear extracts of each sample were incubated with immobilized NF-κB-specific oligonucleotides for 1 hr. The p65 protein bound to DNA was then visualized by incubation with p65-specific antibody, HRP-conjugated secondary antibody and developing solution and measured with a microplate reader with the absorbance at 450 nm.

[2] = test system: normal epithelial cells of colon mucosal tissues; experiment: en bloc control colon mucosal tissue culture: normal epithelial cell death by PI-staining and FACS; type: cell-based, human; conditions: DOX 3 days
Procedure: as §4, §5
Tumor tissue were washed with 1×PBS buffer plus antibiotics and then cut into 0.5 cm pieces. Tissues were cultured in 2 mL of RPMI 1640 medium, supplemented with 2-10% FBS (Sigma) and 1% antibiotic-antimycotic solution (Gibco) in 24-well plate (Corning). The cultures were incubated at a 37° C., 5% CO2 incubator. […]
Single cell suspensions generated from en bloc tissue culture were washed with FACS staining solution (PBS plus 2% FBS), fixed and permeabilized (Invitrogen) and then stained with Ber-EP4 antibodies for normal epithelial cells and CK7, CK19 and CK20 for cancer cells for 30 minutes on ice. […] Cell viability were then analyzed with a flow cytometry.

[3] = test system: TAMs and TIL in en bloc CRC; experiment: en bloc CRC culture: DOX effects on TAM plasticity and TIL differentiation; type: cell-based, human
Text: As DOX induces Hom-1 expression in TAMs in en bloc CRC culture (data not shown), this example illustrates the involvement of Hom-1 in mediating therapeutic effects of DOX.
Consistent with a key regulatory role of Hom-1 in mediating DOX effects on TAM plasticity and the immune landscape of TME, it was shown that knockdown of Hom-1 expression in TAMs attenuated DOX effects on the expression of M1 and M2 markers and inhibited DOX-induced secretion of pro-inflammatory cytokines (data not shown).
as §3

[4] = test system: non-small cell lung cancer (NSCLC); experiment: en bloc tumor culture with chemotherapeutic agent and Hom-1-TAMs: NSCLC; type: cell-based; conditions: agent plus Hom-1-TAMs
Procedure: as §1, §2, §3

stomach cancer = experiment: en bloc tumor culture with chemotherapeutic agent and Hom-1-TAMs: stomach cancer; type: cell-based; conditions: agent plus Hom-1-TAMs
Procedure: as §1, §2, §3

[5] = test system: NFκB binding to Hom-1 promoter; experiment: ChIP assay of NFκB at Hom-1 promoter; type: cell-based; conditions: human monocytes, 1 μM DOX, 24 hours
Procedure: Human monocytes were treated with 1 μM DOX or PBS control for 24 hours and harvested for ChIP assay. The ChIP procedure was performed with a kit from Upstate biotechnology following the manufacturer's instructions. The NFκB p65 antibody (Cell Signaling Technology, Cat# 8242) was used for the immunoprecipitation. The Rabbit IgG antibody was served as a negative control. The Hom-1 promotor region containing a putative NFκB binding site was amplified with specific primers 5′-[…]-3′ and 5′-[…]-3′. All PCR products were separated on 1% agarose gel and visualized by ethidium bromide staining.

Hom-1 expression in TAMs = experiment: DOX induction of Hom-1 expression; type: cell-based, human
Procedure: Total RNA was isolated by the TRIzol reagent (Life Technologies) and RNA amounts were measured by NanoDrop 2000 (Thermo Scientific). Equal amount of RNA was used for first-strand cDNA synthesis with SuperScript III First-Strand Synthesis System (Life Technologies) according to the manufacturer's protocol. The AccuPrime Taq DNA polymerase system (Life Technologies) was used to amplify Hom-1 cDNA with conventional PCR. Quantitative measurements of Hom-1 and other cDNA were carried out with SYBR Green, using a Mastercycler ep Gradient S (Eppendorf). GAPDH was used as a house keeping gene to normalize mRNA expression. Relative expression profiles of mRNAs were calculated using the comparative Ct method (DDCT method).
as §3, with “After gently shaking, the plate was incubated at 37° C., 5% CO2 for 3-5 days. The en bloc tissues were then subjected to single 1 cell isolation and analysis as described.” left out

primary human CRC = experiment: NSG-PDX model of primary human CRC; type: in vivo; conditions: low dosage DOX 1.5 mg/kg tail-vein, alone
Procedure: To this end, NSG-PDX models of primary human CRC were established according to established methods. One week post-implantation of primary CRC tumors, the mice were tail-vein injected with a low dosage of Hom-1-TAMs. Three days later, low dosage DOX at 1.5 mg/kg were given through tail-vein injection and the DOX injection were repeated after two weeks.
Animal models of primary human colon cancers were developed previously. Briefly, 8-week-old NOD. Cg-Prkdc^scid Il2rg^tm1Wjl/SzJ mice (commonly known as NOD scid gamma, or NSG mice) were purchased from the Jackson Laboratory and maintained under specific pathogen-free conditions. Tumors were cut into around 0.5 cm pieces and then surgically implanted into subcutaneous space in flank of NSG mice. After one week of implantation, 0.25×10^6 TAMs transfected with GFP-Hom-1 or control GFP were injected into the mice through tail vain. After three days, 1.5 mg/Kg of DOX or PBS control were tail-vain injected and then repeated after two weeks. The tumor growth was monitored twice weekly and measured by a caliper for 6 weeks. Tumor volumes were calculated according to the formula ½ (length×width^2).

PDAC = experiment: en bloc tumor culture with chemotherapeutic agent and Hom-1-TAMs: PDAC; type: cell-based; conditions: agent plus Hom-1-TAMs
Procedure: as §1, §2, §3

[6] = en bloc CRC culture, agent alone, dose range

COc1cccc2c1C(=O)c1c(O)c3c(c(O)c1C2=O)C[C@@](O)(C(=O)CO)C[C@@H]3O[C@H]1C[C@H](N)[C@H](O)[C@H](C)O1 [DOX, Doxorubicin]
tumoricidal effects promoted by Hom-1-TAMs (esophageal cancer): promotes tumoricidal function | cytocidal effects on tumor cells [1, 6]: dosage-dependent cytocidal effects on tumor cells | cytocidal effects on tumor cells ([1]; en bloc CRC, DOX alone at non-cytotoxic concentration, 5 days): little cytocidal effects on tumor cells | NFκB expression (NFκB): induces NFκB expression in primary human monocytes in a dosage dependent manner | cytotoxic effects on normal epithelial cells [2]: less cytotoxic effects on normal epithelial cells | CD4 T cell differentiation into Treg cells [3]: reduced CD4 T cell differentiation into Treg cells | CD8 T cell activation [3]: increased CD8 T cell activation | TAM phenotype (M1/M2 markers and cytokines) [3]: shifted the population of TAMs from M2-like phenotype to M1-like phenotype | tumoricidal effects promoted by Hom-1-TAMs [4]: promotes tumoricidal function | tumoricidal effects promoted by Hom-1-TAMs (stomach cancer): promotes tumoricidal function | interaction of NFκB with Hom-1 promoter [5]: promoted the interaction of NFκB with Hom-1 promoter | Hom-1 expression (Hom-1 expression in TAMs; cancer cells and macrophages): potent inducer of Hom-1 expression both in cancer cells and in macrophages | TAM Hom-1 expression (Hom-1 expression in TAMs; en bloc CRC culture): induced TAM Hom-1 expression in the en bloc CRC culture in a dosage dependent manner | inhibition of CRC tumorigenesis (primary human CRC): small discernable inhibition on CRC tumorigenesis | tumoricidal effects promoted by Hom-1-TAMs (PDAC): promotes tumoricidal function

Nc1ccn([C@@H]2O[C@H](CO)[C@@H](O)C2(F)F)c(=O)n1 [Gemcitabine]
tumoricidal effects promoted by Hom-1-TAMs (PDAC): promoted

O=c1[nH]cc(F)c(=O)[nH]1 [5-FU]
cytocidal effects on tumor cells [1, 6]: dosage-dependent cytocidal effects on tumor cells | tumoricidal effects promoted by Hom-1-TAMs ([1]; en bloc CRC culture, agent plus Hom-1-TAMs): promoted
